Data taken from patent US20100261726A1, “TREATMENT OF AML” (priority 2002, published 2010).
Like-named read-outs stand apart in the source and are kept apart here.

Experiments:
[1] = tested on: patient leukemic cells (AML samples); experiment: cells; assay type: cell-based
Method: (§1) After informed consent bone marrow and peripheral blood cells were obtained at diagnosis from 6 pediatric AML patients aged 0-18 years. The diagnosis is assessed by cytomorphology using FAB classification and immunophenotyping (Bennett J M et al., Br. J. Haematol. 33: 451-458, 1976). Mononuclear cells (MNC) are separated by Lymphoprep (Nycomed, Oslo, Norway) density gradients and cryopreserved in liquid nitrogen until use. Cryopreserved AML cells are thawed rapidly at 37° C., diluted in a 5× volume of normal calf serum (NCS) as described by Dokter W H et al., Leukemia 9: 425-432, 1995. The remaining pellet is T-cell depleted by sheep red blood cells and separated over lymphoprep density gradient. Remaining blast cell population contained more than 95% AML cells, hereafter referred to as AML cells and cultured in RPMI-1640 supplemented with penicillin/streptomycin and 10% fetal bovine serum.
For the leukemic samples (10,000 cells/well) of the patients a 3-day cell culture is used. […] The optical density (OD) is linearly related to the number of viable cells. Control wells contain leukemic cells only with culture media without drugs, and blank wells contain culture media only. […] The LC50 value (drug concentration needed to kill 50% of the leukemic cells) is used to compare the differences between patients and/or various drug combinations. LC50 value equation: ([% leukemic cell survival >50%]−50)/([% leukemic cell survival >50%]−[% leukemic cell survival <50%])×(drug concentration when leukemic cell survival <50%−drug concentration when leukemic cell survival >50%)+(drug concentration when leukemic cell survival >50%).

TF-1 cells [2] = experiment: Apoptosis shown by PI DNA labeling (cell cycle analysis); assay type: cell-based; conditions: dose-dependent, overnight culture, 5% in control wells
Method: Cells are washed with PBS and resuspended in 75% ethanol in PBS and kept at 4° C. for at least 30 minutes. Prior to analysis, cells are washed with PBS, resuspended and incubated for 30 minutes in 1 mg/mL RNase A in PBS and thereafter incubated in staining solution containing 0.05 mg/mL propidium iodide (Sigma), 1 mM EDTA and 0.1% Triton-X-100. The suspension is then passed through a nylon mesh filter and analyzed on Becton Dickinson FACScan.

[3] = tested on: A431 epidermoid, Ls174T colon, HT-29 colon, PC-3 prostate carcinoma; conditions: HT-29, PC-3 carcinomas; cited from earlier work
HL-60 cells = experiment: Total cell kill assay (MTT), leukemic cell line; assay type: cell-based; conditions: PTK787 in different concentrations
Method: (§2) In vitro cellular drug resistance of leukemic HL-60 and TF-1 cells (10,000 cells/well) are assessed using a 2-day cell culture assay based on the principle that only viable cells are able to reduce 3-(4,5-dimethyl-2-thiazolyl)-2,5-diphenyl-tetrazolium bromide (MTT) (5 mg/mL in PBS added to each well for 4 hours) to a colored formazan product, measured spectrophotometrically at 520 nm. For the leukemic samples (10,000 cells/well) of the patients a 3-day cell culture is used. […] The optical density (OD) is linearly related to the number of viable cells. Control wells contain leukemic cells only with culture media without drugs, and blank wells contain culture media only. Percentage of cell survival is calculated at each drug concentration by the equation (mean OD treated wells/mean OD control wells)×100% after correction for the background found in the blank wells. The results are considered evaluable when the control wells still contain 70% or more leukemic cells (determined by MGG staining) after a 3-day culture period. The mean OD of the control wells after correction for the background at 3 days always exceeds 0.1 arbitrary units for valid results. The LC50 value (drug concentration needed to kill 50% of the leukemic cells) is used to compare the differences between patients and/or various drug combinations. […]

TF-1 cells [4] = experiment: Total cell kill assay (MTT), leukemic cell line; assay type: cell-based; conditions: PTK787 in different concentrations
Method: as §2

[5] = tested on: primary AML cells of pediatric AML patients; experiment: Patient leukemic cell survival counted by trypan blue exclusion; assay type: cell-based, human
Method: as §1
(§3) Before incubation with recombinant (rec) VEGF165 (Sigma, St. Louis, […].) and/or PTK787, AML cells and/or cell lines are serum starved for 4 hours in serum free medium (X-vivo 10, Biowhitaker, Brussels, Belgium). For proliferation experiments, cells are cultured in six-well plates (Corning-Costar Corp., Cambridge, Mass., USA), at a cell density of 1×10^5 cells per well in serum free medium (X-vivo-10) for 24 hours. Cells are treated (rec VEGF165 5-100 ng/mL) or untreated (media alone) and are cultured in the presence or absence of PTK787 (5-100 nM). After 24 hours viable cells (determined by trypan blue exclusion) are counted in triplicate using a hemocytometer. Each experiment is done in triplicate, and experiments with leukemic cell lines are repeated three times.
Correlations are calculated using the Spearman rank correlation coefficient (rho). A paired sample non-parametric test (Wilcoxon Signed Ranks test) is used to analyze the paired viable cells (with or without VEGF, as well as with or without PTK787). A significant difference is defined as a P-value <0.05.

TF-1 cells [6] = experiment: Survival assay, viable cells counted by trypan blue exclusion after 24 hours; assay type: cell-based
Method: The cell lines HL-60, TF-1, K562 and U937 are obtained from American Type Culture Collection (Manassas, Va., USA) and cultured in RPMI-1640 (Roswell Park Memorial Institute) supplemented with penicillin/streptomycin and 10% fetal bovine serum (FBS, Hyclone, Logan, Utah, USA) for U937, K562 and HL-60 cells and supplemented with GM-CSF 1 ng/mL for TF-1 cells.
as §3

K562 cells = experiment: Total cell kill assay (MTT), leukemic cell line; assay type: cell-based; conditions: PTK787 in different concentrations
[7] = Homo sapiens, read-out: LC50 value, Patient No. 1, drug alone
[8] = Homo sapiens, read-out: LC50 value, Patient No. 1, with PTK787 5 nM
[9] = Homo sapiens, read-out: LC50 value, Patient No. 1, with PTK787 10 nM
[10] = Homo sapiens, read-out: LC50 value, Patient No. 1, with PTK787 25 nM
[11] = Homo sapiens, read-out: LC50 value, Patient No. 2, drug alone
[12] = Homo sapiens, read-out: LC50 value, Patient No. 2, with PTK787 5 nM
[13] = Homo sapiens, read-out: LC50 value, Patient No. 3, drug alone
[14] = Homo sapiens, read-out: LC50 value, Patient No. 3, with PTK787 5 nM
[15] = Homo sapiens, read-out: LC50 value, Patient No. 4, drug alone
[16] = Homo sapiens, read-out: LC50 value, Patient No. 4, with PTK787 5 nM
[17] = Homo sapiens, read-out: LC50 value, Patient No. 5, drug alone
[18] = Homo sapiens, read-out: LC50 value, Patient No. 5, with PTK787 5 nM
[19] = PTK787 (25 nM) plus exogenous VEGF165

O=C1c2c(O)ccc(O)c2C(=O)c2c(NCCNCCO)ccc(NCCNCCO)c21 [Mitoxantrone, mitoxantrone]
CC50 [1, 7]: 0.23 µg/mL | CC50 [1, 8]: 0.16 µg/mL | CC50 [1, 9]: 0.19 µg/mL | CC50 [1, 10]: 0.03 µg/mL | CC50 [1, 11]: 0.0175 µg/mL | CC50 [1, 12]: 6.1e-05 µg/mL | CC50 [1, 13]: 0.043 µg/mL | CC50 [1, 14]: 0.0004 µg/mL | CC50 [1, 15]: 0.054 µg/mL | CC50 [1, 16]: 2.3e-05 µg/mL | CC50 [1, 17]: 0.0186 µg/mL | CC50 [1, 18]: 6.1e-05 µg/mL | CC50 ([1]; Homo sapiens, read-out: LC50 value, Patient No. 5, with PTK787 10 nM): 8e-07 µg/mL

Nc1ccn([C@@H]2O[C@H](CO)[C@@H](O)[C@@H]2O)c(=O)n1 [Cytarabine, cytarabine]
CC50 [1, 7]: 400 µg/mL | CC50 [1, 8]: 260 µg/mL | CC50 [1, 9]: 250 µg/mL | CC50 [1, 10]: 35 µg/mL | CC50 [1, 11]: 5 µg/mL | CC50 [1, 12]: 0.6 µg/mL | CC50 [1, 13]: 4.7 µg/mL | CC50 [1, 14]: 0.23 µg/mL | CC50 [1, 15]: 1500 µg/mL | CC50 [1, 16]: 560 µg/mL | CC50 ([1]; Homo sapiens, read-out: LC50 value, Patient No. 4, with PTK787 10 nM): 10 µg/mL | CC50 ([1]; Homo sapiens, read-out: LC50 value, Patient No. 4, with PTK787 25 nM): 0.2 µg/mL | CC50 [1, 17]: 3 µg/mL | CC50 [1, 18]: 0.24 µg/mL

Clc1ccc(Nc2nnc(Cc3ccncc3)c3ccccc23)cc1 [PTK787]
apoptosis (fraction of apoptotic cells) (TF-1 cells [2]): up to 12% | growth of human carcinomas transplanted orthotopically into mice [3]: inhibits the growth | vessel density in the tumor tissues [3]: does reduce vessel density | leukemic cell survival (HL-60 cells): up to 1% | leukemic cell survival (TF-1 cells [4]): up to 10% | decrease in cell survival, median [5, 19]: 15% | decrease in cell survival, range over patients [5, 19]: 0%-35.5% | decrease in cell survival, range over patients ([5]; PTK787 alone (25 nM)): 28.2%-75.4% | decrease in cell survival (cell death), median ([5]; PTK787 alone (25 nM), patient samples, p-value 0.043): 55.1% | TF-1 cell survival (TF-1 cells [6]; 25 nM PTK787, 24 hours): 21.9% | effect of PTK787 on cell survival on addition of rec VEGF (TF-1 cells [6]; 25 and 50 nM PTK787 plus rec VEGF, TF-1 cells): can be blocked | CC50 ([1]; Patient No. 1, 72 hours, read-out: LC50 value): > 25 nM | CC50 ([1]; Patient No. 2, 72 hours, read-out: LC50 value): 7.3 nM | CC50 ([1]; Patient No. 3, 72 hours, read-out: LC50 value): 5.8 nM | CC50 ([1]; Patient No. 4, 72 hours, read-out: LC50 value): 25 nM | CC50 ([1]; Patient No. 5, 72 hours, read-out: LC50 value): 7.7 nM | CC50 ([1]; Patient No. 6, 72 hours, read-out: LC50 value): 14.5 nM | leukemic cell survival (K562 cells): no decrease at all
